In the supplement of paper PMC10307832:

Assays:
Assay in all cases: relative viability (nuclei count vs DMSO), 5 days (fraction); higher = more cells survive
[1] = system: NCI-H1792
In short: (§1)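 Relative viability is defined as nuclei in treated wells over nuclei in vehicle wells. Duplicate plates were run and medians reported. Lung cancer cell lines in 1536-well plates were dosed by pin tool one day after seeding, with one drug or with a fixed anchor-drug dose plus five library-drug doses (not always all listed) in √10 steps, and nuclei were counted after 5 days.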

[2] = system: LXF-289
In short: as §1

[3] = system: NCI-H1355
In short: as §1

[4] = system: NCI-H727
In short: as §1

[5] = system: SW 900
In short: as §1

[6] = system: NCI-H596
In short: as §1

[7] = system: NCI-H661
In short: as §1

[8] = system: NCI-H441
In short: as §1

[9] = system: LCLC-103H
In short: as §1

[10] = system: PC-14
In short: as §1

[11] = system: NCI-H460
In short: as §1

[12] = system: SK-MES-1
In short: as §1

[13] = system: RERF-LC-KJ
In short: as §1

[14] = system: NCI-H1755
In short: as §1

[15] = system: NCI-H1915
In short: as §1

[16] = system: NCI-H2170
In short: as §1

[17] = system: NCI-H2347
In short: as §1

[18] = system: NCI-H1563
In short: as §1

[19] = system: NCI-H3122
In short: as §1

[20] = system: NCI-H322M
In short: as §1

[21] = system: NCI-H1651
In short: as §1

[22] = system: NCI-H650
In short: as §1

[23] = system: NCI-H520
In short: as §1

CC1(C)CCC(c2ccc(Cl)cc2)=C(CN2CCN(c3ccc(C(=O)NS(=O)(=O)c4ccc(N[C@H](CCN5CCOCC5)CSc5ccccc5)c(S(=O)(=O)C(F)(F)F)c4)cc3)CC2)C1 [Navitoclax] + N=C(N)NC(=N)NCCc1ccccc1 [Phenformin] (partner 250 µM)
relative viability ([1]; first compound 0.005 µM): 0.258 | relative viability ([1]; first compound 0.01581 µM): 0.179 | relative viability ([1]; first compound 0.5 µM): 0.112 | relative viability ([2]; first compound 0.005 µM): 0.524 | relative viability ([2]; first compound 0.01581 µM): 0.531 | relative viability ([2]; first compound 0.05 µM): 0.498 | relative viability ([2]; first compound 0.1581 µM): 0.506 | relative viability ([2]; first compound 0.5 µM): 0.5 | relative viability ([3]; first compound 0.005 µM): 0.48 | relative viability ([3]; first compound 0.01581 µM): 0.467 | relative viability ([3]; first compound 0.05 µM): 0.388 | relative viability ([3]; first compound 0.1581 µM): 0.436 | relative viability ([3]; first compound 0.5 µM): 0.463 | relative viability ([4]; first compound 0.01581 µM): 0.804 | relative viability ([4]; first compound 0.1581 µM): 0.479 | relative viability ([4]; first compound 0.5 µM): 0.394 | relative viability ([5]; first compound 0.005 µM): 0.484 | relative viability ([5]; first compound 0.01581 µM): 0.638 | relative viability ([5]; first compound 0.05 µM): 0.586 | relative viability ([5]; first compound 0.1581 µM): 0.556 | relative viability ([5]; first compound 0.5 µM): 0.41 | relative viability ([6]; first compound 0.005 µM): 0.742 | relative viability ([6]; first compound 0.01581 µM): 0.71 | relative viability ([6]; first compound 0.1581 µM): 0.67 | relative viability ([6]; first compound 0.5 µM): 0.815 | relative viability ([7]; first compound 0.005 µM): 0.253 | relative viability ([7]; first compound 0.01581 µM): 0.298 | relative viability ([7]; first compound 0.05 µM): 0.262 | relative viability ([7]; first compound 0.1581 µM): 0.257 | relative viability ([7]; first compound 0.5 µM): 0.258 | relative viability ([8]; first compound 0.005 µM): 0.919 | relative viability ([8]; first compound 0.01581 µM): 1.14 | relative viability ([8]; first compound 0.05 µM): 0.846 | relative viability ([8]; first compound 0.1581 µM): 0.851 | relative viability ([8]; first compound 0.5 µM): 0.818 | relative viability ([9]; first compound 0.005 µM): 0.342 | relative viability ([9]; first compound 0.01581 µM): 0.359 | relative viability ([9]; first compound 0.05 µM): 0.314 | relative viability ([9]; first compound 0.1581 µM): 0.322 | relative viability ([9]; first compound 0.5 µM): 0.338 | relative viability ([10]; first compound 0.005 µM): 0.611 | relative viability ([10]; first compound 0.01581 µM): 0.598 | relative viability ([10]; first compound 0.05 µM): 0.57 | relative viability ([10]; first compound 0.1581 µM): 0.541 | relative viability ([10]; first compound 0.5 µM): 0.616 | relative viability ([11]; first compound 0.005 µM): 0.509 | relative viability ([11]; first compound 0.01581 µM): 0.512 | relative viability ([11]; first compound 0.05 µM): 0.529 | relative viability ([11]; first compound 0.1581 µM): 0.522 | relative viability ([11]; first compound 0.5 µM): 0.515 | relative viability ([12]; first compound 0.005 µM): 0.581 | relative viability ([12]; first compound 0.01581 µM): 0.746 | relative viability ([12]; first compound 0.05 µM): 0.684 | relative viability ([12]; first compound 0.1581 µM): 0.681 | relative viability ([12]; first compound 0.5 µM): 0.722 | relative viability ([13]; first compound 0.005 µM): 0.41 | relative viability ([13]; first compound 0.01581 µM): 0.353 | relative viability ([13]; first compound 0.05 µM): 0.428 | relative viability ([13]; first compound 0.1581 µM): 0.381 | relative viability ([13]; first compound 0.5 µM): 0.437 | relative viability ([14]; first compound 0.005 µM): 0.639 | relative viability ([14]; first compound 0.01581 µM): 0.659 | relative viability ([14]; first compound 0.05 µM): 0.575 | relative viability ([14]; first compound 0.1581 µM): 0.521 | relative viability ([14]; first compound 0.5 µM): 0.43 | relative viability ([15]; first compound 0.005 µM): 0.382 | relative viability ([15]; first compound 0.01581 µM): 0.431 | relative viability ([15]; first compound 0.05 µM): 0.441 | relative viability ([15]; first compound 0.1581 µM): 0.42 | relative viability ([15]; first compound 0.5 µM): 0.388 | relative viability ([16]; first compound 0.005 µM): 0.442 | relative viability ([16]; first compound 0.01581 µM): 0.47 | relative viability ([16]; first compound 0.05 µM): 0.391 | relative viability ([16]; first compound 0.1581 µM): 0.42 | relative viability ([16]; first compound 0.5 µM): 0.347 | relative viability ([17]; first compound 0.005 µM): 0.452 | relative viability ([17]; first compound 0.01581 µM): 0.567 | relative viability ([17]; first compound 0.1581 µM): 0.321 | relative viability ([17]; first compound 0.5 µM): 0.482 | relative viability ([18]; first compound 0.005 µM): 0.685 | relative viability ([18]; first compound 0.01581 µM): 0.723 | relative viability ([18]; first compound 0.05 µM): 0.611 | relative viability ([18]; first compound 0.1581 µM): 0.682 | relative viability ([18]; first compound 0.5 µM): 0.665 | relative viability ([19]; first compound 0.005 µM): 0.402 | relative viability ([19]; first compound 0.01581 µM): 0.423 | relative viability ([19]; first compound 0.05 µM): 0.306 | relative viability ([19]; first compound 0.1581 µM): 0.348 | relative viability ([19]; first compound 0.5 µM): 0.391 | relative viability ([20]; first compound 0.005 µM): 0.805 | relative viability ([20]; first compound 0.01581 µM): 0.923 | relative viability ([20]; first compound 0.05 µM): 0.776 | relative viability ([20]; first compound 0.1581 µM): 0.848 | relative viability ([20]; first compound 0.5 µM): 0.954 | relative viability ([21]; first compound 0.005 µM): 0.3 | relative viability ([21]; first compound 0.01581 µM): 0.3 | relative viability ([21]; first compound 0.05 µM): 0.298 | relative viability ([21]; first compound 0.1581 µM): 0.353 | relative viability ([21]; first compound 0.5 µM): 0.295 | relative viability ([22]; first compound 0.005 µM): 0.447 | relative viability ([22]; first compound 0.01581 µM): 0.473 | relative viability ([22]; first compound 0.05 µM): 0.456 | relative viability ([22]; first compound 0.1581 µM): 0.456 | relative viability ([22]; first compound 0.5 µM): 0.504 | relative viability ([23]; first compound 0.005 µM): 0.576 | relative viability ([23]; first compound 0.01581 µM): 0.758 | relative viability ([23]; first compound 0.05 µM): 0.571 | relative viability ([23]; first compound 0.1581 µM): 0.507 | relative viability ([23]; first compound 0.5 µM): 0.616
